According to US20100120700A1, “METHODS AND COMPOSITIONS FOR TREATING CERVICAL CANCER” (priority 2000, published 2010):
Several values for one entry are separate records, joined by “and”; a condition that tells them apart may be missing. Equal entries are not always repeated.

Assays:
Assay in all cases: G assay PDZ-PL binding
Densin domain 1 = biological target: T1, Densin domain 1 (Homo sapiens, UniProt Q96NW7); settings: peptide 10 uM, protein 5
T1 construct: made in house; host or cells: E. coli (DH5alpha or BL-21)
T1 sequence (Q96NW7 1429-1537): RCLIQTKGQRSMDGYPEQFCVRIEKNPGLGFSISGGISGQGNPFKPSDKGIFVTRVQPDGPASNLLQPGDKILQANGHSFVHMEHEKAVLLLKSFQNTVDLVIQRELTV
Method in brief: (§1)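 Plate ELISA: anti-GST antibody coat, BSA block, then GST/PDZ fusion (GST alone as negative control). Biotinylated PL peptide 20 uM (10 uM in G′ variant) added, 10 min 4 °C plus 20 min 25 °C; streptavidin-HRP, TMB, absorbance 450 nm.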

MAGI 1 domain 4 = biological target: T2, MAGI 1 domain 4 (Homo sapiens, UniProt Q96QZ7); settings: peptide 10 uM, protein 5
T2 construct: made in house; host or cells: E. coli (DH5alpha, BL21 or JM109)
T2 sequence (Q96QZ7 with tags, fused parts or gaps): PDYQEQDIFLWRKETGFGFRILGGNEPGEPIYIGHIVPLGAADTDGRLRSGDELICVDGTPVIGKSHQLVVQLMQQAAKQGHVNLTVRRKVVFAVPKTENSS
Method in brief: as §1

PTPL1 domain 2 = biological target: T3, PTPL1 domain 2 (Homo sapiens, UniProt Q12923); settings: peptide 10 uM, protein 5
T3 construct: made in house; host or cells: E. coli (DH5alpha, BL21 or JM109)
T3 sequence (Q12923 1364-1458): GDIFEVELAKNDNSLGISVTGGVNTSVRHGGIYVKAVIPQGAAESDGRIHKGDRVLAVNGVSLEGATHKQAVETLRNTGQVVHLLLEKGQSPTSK
Method in brief: as §1

KIAA0380 #25.6 domain 1 = biological target: T4, KIAA0380 #25.6 domain 1 (Homo sapiens, UniProt O15085); settings: vs GST only well, peptide 10 uM, protein 5
T4 construct: made in house; host or cells: E. coli (DH5alpha, BL21 or JM109), vector pGEX-3X
T4 sequence (O15085 45-123): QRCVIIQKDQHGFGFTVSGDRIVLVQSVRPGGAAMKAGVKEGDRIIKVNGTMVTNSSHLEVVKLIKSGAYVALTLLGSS
Method in brief: as §1

KIAA0973 #148.5 domain 1 = biological target: T5, KIAA0973 #148.5 domain 1 (Homo sapiens, UniProt Q9Y2H9); settings: peptide 10 uM, protein 5
T5 construct: made in house; host or cells: E. coli (DH5alpha, BL21 or JM109)
T5 sequence (Q9Y2H9 963-1055): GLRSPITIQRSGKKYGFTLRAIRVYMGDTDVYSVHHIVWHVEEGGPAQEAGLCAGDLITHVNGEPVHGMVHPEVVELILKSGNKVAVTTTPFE
Method in brief: as §1

KIAA0147 domain 2 = biological target: T6, KIAA0147 domain 2 (Homo sapiens, UniProt Q14160); settings: peptide 10 uM, protein 5
T6 construct: made in house; host or cells: E. coli (DH5alpha or BL-21)
T6 sequence (Q14160 856-952): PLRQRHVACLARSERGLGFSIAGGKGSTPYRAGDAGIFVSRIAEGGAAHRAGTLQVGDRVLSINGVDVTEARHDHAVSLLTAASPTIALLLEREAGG
Method in brief: as §1

KIAA0316 domain 1 = biological target: T7, KIAA0316 domain 1 (Homo sapiens, UniProt Q14CM0); settings: peptide 10 uM, protein 5
T7 construct: made in house; host or cells: E. coli (DH5alpha, BL21 or JM109), vector pGEX-3X
T7 sequence (Q14CM0 72-159): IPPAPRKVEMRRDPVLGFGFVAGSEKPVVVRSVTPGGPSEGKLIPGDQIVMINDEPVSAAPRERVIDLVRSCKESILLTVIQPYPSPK
Method in brief: as §1

EBP50 #287.1 domain 2 = biological target: T8, EBP50 #287.1 domain 2 (Homo sapiens, UniProt O14745); settings: peptide 10 uM, protein 5
T8 construct: made in house; host or cells: E. coli (DH5alpha, BL21 or JM109)
T8 sequence (O14745 with tags, fused parts or gaps): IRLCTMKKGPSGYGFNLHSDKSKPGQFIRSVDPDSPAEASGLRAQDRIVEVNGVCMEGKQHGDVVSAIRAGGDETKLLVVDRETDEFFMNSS
Method in brief: as §1

KIAA1526 #119.1 domain 1 = biological target: T9, KIAA1526 #119.1 domain 1 (Homo sapiens, UniProt Q9P202); settings: peptide 10 uM, protein 5
T9 construct: made in house; host or cells: E. coli (DH5alpha or BL-21)
T9 sequence (Q9P202 130-232): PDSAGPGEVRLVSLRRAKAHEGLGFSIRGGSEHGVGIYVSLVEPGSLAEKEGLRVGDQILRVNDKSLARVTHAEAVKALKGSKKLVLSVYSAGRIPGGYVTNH
Method in brief: as §1

Numb BP domain 1 = biological target: T10, Numb BP domain 1 (Homo sapiens, UniProt Q8TBB1); settings: peptide 10 uM, protein 5
T10 construct: made in house; host or cells: E. coli (DH5alpha, BL21 or JM109)
T10 sequence (Q8TBB1 with tags, fused parts or gaps): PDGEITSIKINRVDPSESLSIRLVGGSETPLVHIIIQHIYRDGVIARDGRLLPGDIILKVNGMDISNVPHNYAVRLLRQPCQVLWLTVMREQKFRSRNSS
Method in brief: as §1

KIAA1526 #126.1 domain 2 = biological target: T11, KIAA1526 #126.1 domain 2 (Homo sapiens, UniProt Q9P202, G331W); settings: peptide 10 uM, protein 5
T11 construct: made in house; host or cells: E. coli (DH5alpha, BL21 or JM109)
T11 sequence (Q9P202 272-371 G331W): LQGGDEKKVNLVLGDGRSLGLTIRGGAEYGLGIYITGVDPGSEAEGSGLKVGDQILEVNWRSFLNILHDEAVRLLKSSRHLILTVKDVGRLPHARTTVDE
Method in brief: as §1

MAGI 1 domain 3 = biological target: T12, MAGI 1 domain 3 (Homo sapiens, UniProt Q96QZ7); settings: peptide 10 uM, protein 5
T12 construct: made in house; host or cells: E. coli (DH5alpha, BL21 or JM109)
T12 sequence (Q96QZ7 with tags, fused parts or gaps): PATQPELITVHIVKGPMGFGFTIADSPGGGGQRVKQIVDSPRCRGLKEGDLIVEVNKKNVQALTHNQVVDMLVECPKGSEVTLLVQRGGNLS
Method in brief: as §1

AIPC domain 1 = biological target: T13, AIPC domain 1 (Homo sapiens, UniProt O15018); settings: peptide 10 uM, protein 5
T13 construct: made in house; host or cells: E. coli (DH5alpha, BL21 or JM109), vector pGEX-3X
T13 sequence (O15018 with tags, fused parts or gaps): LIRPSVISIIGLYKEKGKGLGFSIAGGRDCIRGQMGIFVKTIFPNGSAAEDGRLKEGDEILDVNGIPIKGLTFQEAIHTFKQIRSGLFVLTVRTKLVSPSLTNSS
Method in brief: as §1

ERBIN domain 1 = biological target: T14, ERBIN domain 1 (Homo sapiens, UniProt Q96RT1); settings: peptide 10 uM, protein 5
T14 construct: made in house; host or cells: E. coli (DH5alpha, BL21 or JM109)
T14 sequence (Q96RT1 1313-1412): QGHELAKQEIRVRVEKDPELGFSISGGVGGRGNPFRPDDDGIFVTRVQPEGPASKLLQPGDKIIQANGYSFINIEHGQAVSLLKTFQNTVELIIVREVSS
Method in brief: as §1

20 mer peptide corresponding to the C-terminus of HPV16 E6 (PDZ ligand), biotinylated in binding assays; ends SSRTRRETQL (SEQ ID NO: 13) [HPV E6 #16]
Ave OD (Densin domain 1; A450 nm): 0.4205 and 0.3505
OD S/N (Densin domain 1; vs GST only well): 1.96 and 1.82
Ave OD (MAGI 1 domain 4; A450 nm): 0.395 and 0.496
OD S/N (MAGI 1 domain 4; vs GST only well): 1.20 and 1.58
Ave OD (PTPL1 domain 2; A450 nm): 0.348
OD S/N (PTPL1 domain 2; vs GST only well): 1.80
OD S/N (KIAA0380 #25.6 domain 1): 1.95 and 3.06
Ave OD (KIAA0973 #148.5 domain 1; A450 nm): 0.378 and 0.4985
OD S/N (KIAA0973 #148.5 domain 1; vs GST only well): 1.68 and 2.71
Ave OD (KIAA0147 domain 2; A450 nm): 0.3745
OD S/N (KIAA0147 domain 2; vs GST only well): 2.46
Ave OD (KIAA0316 domain 1; A450 nm): 0.343 and 0.6125
OD S/N (KIAA0316 domain 1; vs GST only well): 2.34 and 2.56
Ave OD (EBP50 #287.1 domain 2; A450 nm): 0.499
OD S/N (EBP50 #287.1 domain 2; vs GST only well): 2.57
Ave OD (KIAA1526 #119.1 domain 1; A450 nm): 0.425
OD S/N (KIAA1526 #119.1 domain 1; vs GST only well): 1.38
Ave OD (Numb BP domain 1; A450 nm): 0.352
OD S/N (Numb BP domain 1; vs GST only well): 3.17
Ave OD (KIAA1526 #126.1 domain 2; A450 nm): 0.4625
OD S/N (KIAA1526 #126.1 domain 2; vs GST only well): 1.87
Ave OD (MAGI 1 domain 3; A450 nm): 0.354
OD S/N (MAGI 1 domain 3; vs GST only well): 1.46
Ave OD (AIPC domain 1; A450 nm): 0.5595
OD S/N (AIPC domain 1; vs GST only well): 2.30
Ave OD (ERBIN domain 1; A450 nm): 0.36 and 0.342
OD S/N (ERBIN domain 1; vs GST only well): 1.82 and 1.30
